EP0306300B1, “Pyrrolo(1,2-a)imidazole and imidazo(1,2-a)pyridine derivatives and their use as 5-lipoxygenase pathway inhibitors” (SMITHKLINE BEECHAM CORPORATION, priority 1987, dated 1989)
pIC50: −log10 of the molar value.

Legend:
[1] = system: arachidonic acid-induced edema in mice; test: Arachidonic acid-induced mouse ear inflammation (ear swelling); assay type: in vivo, male Balb/c mice; details: mouse, po; read-out: AAEE(MOUSE ED50 mg/kg (po))
Experimental: In the tests used to determine activity as 5-lipoxygenase pathway inhibitors, male Balb/c mice (20-28 g), were used. All mice were obtained from Charles River Breeding Laboratories, Kingston, N.Y. Within a single experiment, mice were age matched.
Reagents were employed as follows: Compounds of Formula (I) were each used as the free base. The compounds were homogenized in 0.5% tragacanth. Compounds were administered by […] at the indicated dose in a final volume of 10 ml/kg.
Arachidonic acid in acetone (2 mg/20 »l) was applied to the inner surface of the left ear. The thickness of both ears was then measured with a dial micrometer one hour after treatment, and the data were expressed as the change in thickness (10⁻³ cm) between treated and untreated ears.
Test compounds were given orally in acid/saline at the times indicated in the text prior to the topical application of arachidonic acid.
Dermatol., 82, 367-371 (1984)].

[2] = Log D determination by high pressure liquid chromatography; assay type: physicochemical; details: hplc ods, mobile phase MeOH:H2O, pH 7.4, read-out: (Log D) (Lipophilicity)
Experimental: The procedure used to determine the log D's listed on Table VI was as follows. A 20 »l sample was injected into a Shandon Hypersil ODS, 5» (100 mm x 4.6 mm ID) column and was eluted using a mobile phase of […] MeOH:H₂O (The aqueous portion was .01 M in KH₂PO₄ and adjusted to pH 7.4 with KOH after mixing the MeOH), at a flow rate of 2 ml per minute. Eluting peaks were detected by UV absorbance at […]. All samples were made up at 0.1 mg/ml. (Retentions were identical at 0.01 mg/ml.)
The data was analyzed by determining the regression line corresponding to the log k′ vs. literature log P of the reference standards.
The reference standards and their literature log P's included NaNO₂, 0.0; acetanalide, 1.16; acetophenone, 1.66; anisole, 2.08; chlorobenzene, 2.84; benzophenone, 3.18; anthracene, 4.45; and pentachlorobenzene, 5.12.

[3] = system: cynomolgus monkeys; test: CNS activity / oral toxicity in cynomolgus monkeys; details: cynomolgus monkey, in vivo
Experimental: Additional monkeys tolerated repeated doses of 45 mg/kg or 30 mg/kg and one animal tolerated an escalating dose schedule of 30-90-120 mg/kg.
The two monkeys administered 400 mg/kg were repeatedly administered this dose for 7 consecutive days; each animal experienced emesis within 1 to 5 hours of dosing after the 1st, 3rd and 4th doses, whereas only the female experienced emesis after the 5th, 6th and 7th doses. A complete necropsy, serum clinical chemistry, hematology and histological examination was completed on both monkeys.

[4] = system: cynomolgus monkeys; test: CNS activity / oral toxicity in cynomolgus monkeys; assay type: in vivo
[5] = Cytochrome P-450 inhibition (ethoxycoumarin-O-deethylase activity, phenobarbital-induced microsomes); details: rat
[6] = cynomolgus monkey, in vivo, po, 60 mg/kg

| Compound | ED50 [1] [mg/kg] | chromatographic logD [2] | Adverse CNS activity [3] | time of death after dosing ([4]; cynomolgus monkey, in vivo, 90 mg/kg) [h] | clinical effects ([4]; oral 90 mg/kg/day, two consecutive days, 1 female, 1 male, 90 mg/kg/day) | pIC50 ([5]; liver microsomes) | pIC50 ([5]; microsomes) | clinical effects [4, 6] | time of death after dosing [4, 6] [h] | clinical effects ([4]; cynomolgus monkey, in vivo, po, 90 mg/kg) | clinical effects ([4]; single oral dose of 90 mg/kg, 1 female, 1 male, 90 mg/kg) |
| --- | --- | --- | --- | --- | --- | --- | --- | --- | --- | --- | --- |
| Fc1ccc(-c2nc3n(c2-c2ccncc2)CCS3)cc1 [Compound A, 5-(4-pyridyl)-6-(4-fluorophenyl)-2,3-dihydroimidazo[2,1-b]thiazole] | 27 | 2.19 | +++ | 1 to 5 | caused convulsions and death | 6.22 | 6.05 |  |  |  |  |
| COc1ccc(-c2nc3n(c2-c2ccncc2)CCC3)cc1 [Compound C, 2-(4-methoxyphenyl)-3-(4-pyridyl)-6,7-dihydro-[5H]-pyrrolo[1,2-a]imidazole] | 28 | 2.14 | +++ |  |  | 4.67 |  | sedation, loss of consciousness and death of one (male) | ≤ 1 | death of both animals | caused convulsions and death |
